Measurements published in ChEMBL document CHEMBL1201862, “PubChem BioAssay data set” (2004).
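Protocol summary: plate cells (96-well), add compound at 5 concentrations, incubate 48 h, interpolate endpoints linearly. Here, GI50 denotes the concentration required for 50% inhibition of growth.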 Calls of active or inactive are those of the source. No stated cut-off is given here; in the data, active = GI50 up to about 1.1 µM and inactive = higher.

Tests used:
Assay in all cases: DTP human tumour cell line panel, 48 h
[1] = tested on: MDA-N
[2] = tested on: EKVX
[3] = tested on: HCT-15
[4] = tested on: NCI/ADR-RES
[5] = tested on: BT-549
[6] = tested on: SK-MEL-2
[7] = tested on: UACC-62
[8] = tested on: A549
[9] = tested on: TK-10
[10] = tested on: UACC-257
[11] = tested on: SF-268
[12] = tested on: Hs-578T
[13] = tested on: SNB-19
[14] = tested on: HL-60
[15] = tested on: OVCAR-8
[16] = tested on: UO-31
[17] = tested on: RPMI-8226
[18] = tested on: HOP-62
[19] = tested on: SR
[20] = tested on: OVCAR-5
[21] = tested on: NCI-H23
[22] = tested on: SW-620
[23] = tested on: T47D
[24] = tested on: CAKI-1
[25] = tested on: SN12C
[26] = tested on: 786-0
[27] = tested on: MOLT-4
[28] = tested on: OVCAR-4
[29] = tested on: M14
[30] = tested on: SK-OV-3
[31] = tested on: PC-3
[32] = tested on: MCF7
[33] = tested on: COLO 205
[34] = tested on: HCT-116
[35] = tested on: SK-MEL-5
[36] = tested on: ACHN
[37] = tested on: HOP-92
[38] = tested on: SF-295
[39] = tested on: K562
[40] = tested on: NCI-H460
[41] = tested on: IGROV-1
[42] = tested on: HCC 2998
[43] = tested on: CCRF-CEM
[44] = tested on: A498
[45] = tested on: NCI-H226
[46] = tested on: KM12
[47] = tested on: SF-539
[48] = tested on: DU-145
[49] = tested on: SNB-75
[50] = tested on: U-251
[51] = tested on: MDA-MB-231
[52] = tested on: Malme-3M
[53] = tested on: LOX IMVI
[54] = tested on: NCI-H522
[55] = tested on: SK-MEL-28
[56] = tested on: OVCAR-3
[57] = tested on: MDA-MB-435
[58] = tested on: RXF 393
[59] = tested on: HT-29

In the case of `COCCOCCOC1=C(Cl)C(=O)c2c(O)ccc(O)c2C1=O`, the GI50 [1] is reported as 5020 nM (inactive), the GI50 [2] is reported as 8570 nM (inactive) and the GI50 [3] is reported as 1610 nM. For the same molecule, the GI50 [4] was 2930 nM (inactive), the GI50 [5] was 2150 nM (inactive) and the GI50 [6] was 1170 nM (inactive). The GI50 [7] was 1630 nM (inactive), the GI50 [8] was 8020 nM (inactive) and the GI50 [9] was 1520 nM (inactive). The GI50 [10] was 1990 nM (inactive), the GI50 [11] was 2590 nM (inactive) and the GI50 [12] was 3110 nM (inactive). The GI50 [13] was 13500 nM (inactive), the GI50 [14] was 207 nM (active) and the GI50 [15] was 2210 nM (inactive). For the same molecule, the GI50 [16] was 2160 nM (inactive), the GI50 [17] was 718 nM (active) and the GI50 [18] was 2390 nM (inactive). For the same molecule, the GI50 [19] was 399 nM (active), the GI50 [20] was 9040 nM (inactive) and the GI50 [21] was 2480 nM (inactive). For the same molecule, the GI50 [22] was 287 nM (active), the GI50 [23] was 2540 nM (inactive) and the GI50 [24] was 1270 nM (inactive). For the same molecule, the GI50 [25] was 1890 nM (inactive), the GI50 [26] was 1120 nM (active) and the GI50 [27] was 303 nM (active). For the same molecule, the GI50 [28] was 1850 nM (inactive), the GI50 [29] was 1590 nM (inactive) and the GI50 [30] was 19000 nM (inactive). For the same molecule, the GI50 [31] was 5420 nM (inactive), the GI50 [32] was 1970 nM (inactive) and the GI50 [33] was 1030 nM (active). For the same molecule, the GI50 [34] was 923 nM (active), the GI50 [35] was 1710 nM (inactive) and the GI50 [36] was 1680 nM (inactive). For the same molecule, the GI50 [37] was 1980 nM (inactive), the GI50 [38] was 11700 nM (inactive) and the GI50 [39] was 1210 nM (inactive). For the same molecule, the GI50 [40] was 12900 nM (inactive), the GI50 [41] was 2620 nM (inactive) and the GI50 [42] was 18600 nM (inactive). For the same molecule, the GI50 [43] was 414 nM (active), the GI50 [44] was 3590 nM (inactive) and the GI50 [45] was 18100 nM (inactive). The GI50 [46] was 12800 nM (inactive), the GI50 [47] was 1670 nM (inactive) and the GI50 [48] was 9310 nM (inactive). For the same molecule, the GI50 [49] was 15600 nM (inactive), the GI50 [50] was 5160 nM (inactive) and the GI50 [51] was 2010 nM (inactive). For the same molecule, the GI50 [52] was 1650 nM (inactive), the GI50 [53] was 1950 nM (inactive) and the GI50 [54] was 1010 nM (active). The GI50 [55] was 2330 nM (inactive), the GI50 [56] was 1630 nM (inactive) and the GI50 [57] was 1740 nM (inactive). The GI50 [58] was 1440 nM (inactive) and the GI50 [59] was 3480 nM (inactive).
In the case of `Oc1ccccc1-c1n[nH]c(-c2ccccc2O)n1`, the GI50 [1] is reported as > 100000 nM (inactive), the GI50 [2] is reported as 2110 nM (inactive) and the GI50 [3] is reported as 149 nM. For the same molecule, the GI50 [4] was 2450 nM (inactive), the GI50 [5] was > 100000 nM (inactive) and the GI50 [6] was > 100000 nM (inactive). For the same molecule, the GI50 [7] was 7590 nM (inactive), the GI50 [8] was 2210 nM (inactive) and the GI50 [9] was 3270 nM (inactive). The GI50 [11] was 3050 nM (inactive), the GI50 [12] was > 66100 nM (inactive) and the GI50 [14] was 1270 nM (inactive). The GI50 [15] was 2720 nM (inactive), the GI50 [16] was 5250 nM (inactive) and the GI50 [17] was 2440 nM (inactive). The GI50 [18] was 1770 nM (inactive), the GI50 [19] was 807 nM (active) and the GI50 [20] was 7110 nM (inactive). For the same molecule, the GI50 [21] was 1710 nM (inactive), the GI50 [22] was 2550 nM (inactive) and the GI50 [23] was 2210 nM (inactive). The GI50 [24] was 3220 nM (inactive), the GI50 [25] was 2170 nM (inactive) and the GI50 [26] was 4180 nM (inactive). For the same molecule, the GI50 [27] was 1240 nM (inactive), the GI50 [28] was 2360 nM (inactive) and the GI50 [29] was 2380 nM (inactive). The GI50 [30] was 3150 nM (inactive), the GI50 [31] was 2240 nM (inactive) and the GI50 [32] was 577 nM (active). For the same molecule, the GI50 [33] was 4250 nM (inactive), the GI50 [34] was 1320 nM (inactive) and the GI50 [35] was 3040 nM (inactive). The GI50 [36] was 2210 nM (inactive), the GI50 [37] was 1750 nM (inactive) and the GI50 [38] was 2520 nM (inactive). For the same molecule, the GI50 [39] was 3640 nM (inactive), the GI50 [40] was 573 nM (active) and the GI50 [41] was 407 nM (active). For the same molecule, the GI50 [42] was 3900 nM (inactive), the GI50 [43] was 1470 nM (inactive) and the GI50 [44] was 8510 nM (inactive). The GI50 [45] was 4380 nM (inactive), the GI50 [46] was 1490 nM (inactive) and the GI50 [47] was 4840 nM (inactive). For the same molecule, the GI50 [48] was 8130 nM (inactive), the GI50 [49] was > 26100 nM (inactive) and the GI50 [50] was 3250 nM (inactive). For the same molecule, the GI50 [51] was 1440 nM (inactive), the GI50 [52] was 2840 nM (inactive) and the GI50 [53] was 2060 nM (inactive). For the same molecule, the GI50 [54] was 1640 nM (inactive), the GI50 [55] was > 100000 nM (inactive) and the GI50 [56] was 280 nM (active). The GI50 [57] was > 100000 nM (inactive), the GI50 [58] was 2230 nM (inactive) and the GI50 [59] was 3910 nM (inactive).
